In patent US20100197591A1, “4-AMINO-7,8-DIHYDROPYRIDO[4,3-d]PYRIMIDIN-5(6H)-ONE DERIVATIVES” (pfizer Inc, priority 2009, published 2010):

Columns and labels:
[1] = target: T1, Human full-length diacylglycerol:acylCoA acyltransferase 1 (DGAT-1) (Homo sapiens, UniProt O75907); assay: DGAT-1 Reduced Microsome Multidose Assay, G7829E Human IC50; assay type: biochemical; conditions: crude membrane fraction of Sf9 cells expressing human DGAT-1; [14C]decanoylCoA; terminated with 5 μl of 1.4% phosphoric acid instead of HCl; average where tested more than once
T1 construct: Human full-length diacylglycerol:acylCoA acyltransferase 1 (DGAT-1) was expressed in Sf9 insect cells; made in house; host or cells: Sf9 insect cells (baculovirus); crude membrane/microsome fraction
T1 sequence (O75907 1-488): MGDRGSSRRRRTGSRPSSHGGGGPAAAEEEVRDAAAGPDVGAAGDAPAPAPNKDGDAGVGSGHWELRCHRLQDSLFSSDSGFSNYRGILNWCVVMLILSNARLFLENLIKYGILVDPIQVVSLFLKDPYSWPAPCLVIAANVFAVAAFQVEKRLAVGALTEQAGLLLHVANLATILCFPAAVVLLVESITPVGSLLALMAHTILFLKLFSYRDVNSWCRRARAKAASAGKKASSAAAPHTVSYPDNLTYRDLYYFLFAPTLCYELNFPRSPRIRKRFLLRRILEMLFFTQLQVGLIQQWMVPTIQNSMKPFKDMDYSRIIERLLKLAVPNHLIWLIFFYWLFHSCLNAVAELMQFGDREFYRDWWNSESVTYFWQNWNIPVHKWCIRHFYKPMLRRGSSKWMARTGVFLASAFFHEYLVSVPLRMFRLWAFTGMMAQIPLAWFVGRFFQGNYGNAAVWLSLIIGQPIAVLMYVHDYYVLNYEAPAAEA
Experimental: (§1) Human full-length diacylglycerol:acylCoA acyltransferase 1 (DGAT-1) was expressed in Sf9 insect cells which are then lysed and a crude membrane fraction (105,000×g pellet) was prepared. The DGAT-1 gene is a human DGAT-1 gene described in J Biol Chem 273:26765 (1998) and U.S. Pat. No. 6,100,077.
(§2) In vitro inhibition of DGAT-1 was measured using a modification, further described below, of the assay methodology described in U.S. Pat. No. 6,994,956 B2.
(§3) The cells were cultured as follows. Sf9 cells (20 L) were infected with 4 mL of DGAT-1 Baculovirus Infected Insect Cells (BIIC) for 72 hours in a Wave Bioreactor System 20/50P (Wave Biotec/GE Healthcare).
(§4) Crude DGAT-1 microsomes were prepared as follows. Cell pellets were washed once with ice-cold Dulbecco's phosphate-buffered saline. Cells were collected in tabletop centrifuge (Beckman GS-6KR), 15 minutes, 2000×g, 4° C. Twenty (20) mL of ice-cold Microsome Buffer (MB) was added per 5 g of cell pellet. The suspension was passed through a microfluidizer 3 times (18K psi). The lysate was transferred to centrifuge tubes and centrifuged for 20 minutes at 5000×g (Beckman-Coulter, Inc. Allegra® 64R High-Speed Refrigerated Benchtop Centrifuge, F0650 rotor) at 4° C. The supernatant was transferred to ultracentrifuge tubes and centrifuged at 125,000×g for 1 hour in a Beckman Ti-45 rotor, 4° C. The supernatant fluid was discarded. The pellet was resuspended in 70 mL of MB by sonication. The microsome concentration was determined using Bio-Rad Protein DC Protein Assay. The microsomes were filter sterilized with a 0.22 μm filter. The samples were portioned, flash frozen and stored at −80° C.
(§5) The Microsome Buffer, used for microsome preparation, was prepared by conventional means and contained 125 mM sucrose, 3 mM imidazole, 0.2 μg/mL aprotinin, 0.2 μg/mL leupeptin and 5 mM dithiothreitol (Cleland's reagent), DGAT-1 activity was measured in 384-well format in a total assay volume of 25 μl that contained, Hepes buffer (50 mM, pH 7.5), MgCl2 (10 mM), bovine serum albumin (0.6 mg/ml), [^14C]decanoylCoA (20 μM, 58 Ci/mol) and membranes (25 μg/ml) into which 1,2 dioleoyl-sn-glycerol (75 μM) in acetone has already been incorporated. Inhibitors in DMSO were pre-incubated with membranes before initiating the DGAT-1 reaction by the addition of decanoylCoA. […] The DMSO concentration was 2.5%. The inhibitors were present at a range of eight concentrations to generate an apparent IC50 for each compound. The eight inhibitor concentration employed ranged from 10 μM to 3 nM (from high to low concentration). Specifically, the eight concentrations used were 10 μM, 3 μM, 1 μM, 300 nM, 100 nM, 30 nM, 10 nM and 3 nM.
(§6) Reaction mixtures were neutralized by the addition of 15 μl of tris(hydroxy-methyl)aminomethane (1M, pH 8.0) and then mixed by trituration with 37.5 μl of Microscint™-E (Perkin Elmer). Plates contents were allowed to partition for 15 to 30 min before ^14C was measured in a scintillation spectrometer (Wallac Microbeta Trilux 1450-030 liquid scintillation counter 12 detector in the top-count DPM mode). Percent inhibition of test compounds was computed as […].
(§7) Four separate assays were performed using 4 different methods of analysis. The method of analysis of Assay 1 was the same as Assay 4 (described above) except microsomes were utilized at 25 μg/mL instead of 5 μg/mL. The method of analysis of Assay 2 was the same as Assay 4 (described above) except eleven (11) concentrations of inhibitor were employed instead of eight (8). The method of analysis of Assay 3 was the same as Assay 2 except the compounds were serially diluted in a different laboratory.
(§8) Where this DGAT-1 inhibition assay was performed on a compound more than once, an average is provided for that compound.

[2] = target: T1, Human full-length diacylglycerol:acylCoA acyltransferase 1 (DGAT-1); assay: DGAT-1 Reduced Microsome Multidose Assay, G7329F Human IC50; assay type: biochemical; conditions: crude membrane fraction of Sf9 cells expressing human DGAT-1; [14C]decanoylCoA; apparent IC50, average where tested more than once
Experimental: as §1, §2, §3, §4, §5, §6, §7, §8

Row | SMILES | IC50 [1] [nM] | IC50 [2] [nM]
1 | COc1nc(N)c2c(n1)CCN(c1ccc(C(=O)C(C)(C)C)cc1)C2=O [Example 1F, 4-amino-6-[4-(2,2-dimethylpropanoyl)phenyl]-2-methoxy-7,8-dihydropyrido[4,3-d]pyrimidin-5(6H)-one] | 192 | 
2 | COc1nc(N)c2c(n1)CCN(c1cccc(C(C)(C)CO)c1)C2=O [Example 1K, 4-amino-6-[3-(2-hydroxy-1,1-dimethylethyl)phenyl]-2-methoxy-7,8-dihydropyrido[4,3-d]pyrimidin-5(6H)-one] | 831 | 
3 | COc1nc(N)c2c(n1)CCN(c1ccc(C(C)(C)c3ncco3)cc1)C2=O [Example 1L, 4-amino-2-methoxy-6-{4-[1-methyl-1-(1,3-oxazol-2-yl)ethyl]phenyl}-7,8-dihydropyrido[4,3-d]pyrimidin-5(6H)-one] | 34.8 | 
4 | COc1nc(N)c2c(n1)CCN(c1ccc(C(C)(C)c3cnco3)cc1)C2=O [Example 1M, 4-amino-2-methoxy-6-{4-[1-methyl-1-(1,3-oxazol-5-yl)ethyl]phenyl}-7,8-dihydropyrido[4,3-d]pyrimidin-5(6H)-one] | 11.3 | 
5 | COc1nc(N)c2c(n1)CCN(c1ccc(C(C)(C)c3cc[nH]n3)cc1)C2=O [Example 1N, 4-amino-2-methoxy-6-{4-[1-methyl-1-(1H-pyrazol-3-yl)ethyl]phenyl}-7,8-dihydropyrido[4,3-d]pyrimidin-5(6H)-one] | 31.9 | 
6 | COc1nc(N)c2c(n1)CCN(c1ccc(CC(C)(C)O)cc1)C2=O [Example 1S, 4-amino-6-[4-(2-hydroxy-2-methylpropyl)phenyl]-2-methoxy-7,8-dihydropyrido[4,3-d]pyrimidin-5(6H)-one] | 44.3 | 
7 | COc1nc(N)c2c(n1)CCN(c1ccc3c(c1)COC3(C)C)C2=O [Example 1U, 4-amino-6-(1,1-dimethyl-1,3-dihydro-2-benzofuran-5-yl)-2-methoxy-7,8-dihydropyrido[4,3-d]pyrimidin-5(6H)-one] | 229 | 
8 | COc1nc(N)c2c(n1)CCN(c1ccc(C3(O)CCCCC3)cc1)C2=O [Example 1V, 4-amino-6-[4-(1-hydroxycyclohexyl)phenyl]-2-methoxy-7,8-dihydropyrido[4,3-d]pyrimidin-5(6H)-one] | 113 | 
9 | CCC(O)(CC)c1ccc(N2CCc3nc(OC)nc(N)c3C2=O)cc1 [Example 1W, 4-amino-6-[4-(1-ethyl-1-hydroxypropyl)phenyl]-2-methoxy-7,8-dihydropyrido[4,3-d]pyrimidin-5(6H)-one] | 34 | 
10 | COc1nc(N)c2c(n1)CCN(c1ccc(OCC(C)C)cc1)C2=O [Example 9I, 4-amino-6-(4-isobutoxyphenyl)-2-methoxy-7,8-dihydropyrido[4,3-d]pyrimidin-5(6H)-one] |  | 84.1

Results, then the compound that gave them:

Row | IC50 [1] [nM] | IC50 [2] [nM] | SMILES
11 | 55 |  | COc1nc(N)c2c(n1)CCN(c1ccc(C(C)(C)c3ccon3)cc1)C2=O [Example 3B, 4-amino-6-[4-(1-isoxazol-3-yl-1-methylethyl)phenyl]-2-methoxy-7,8-dihydropyrido[4,3-d]pyrimidin-5(6H)-one]
12 | 4.5 |  | COc1nc(N)c2c(n1)CCN(c1ccc(C(C)(C)c3ccno3)cc1)C2=O [Example 3C, 4-amino-6-[4-(1-isoxazol-5-yl-1-methylethyl)phenyl]-2-methoxy-7,8-dihydropyrido[4,3-d]pyrimidin-5(6H)-one]
13 | 95.3 |  | COc1nc(N)c2c(n1)CCN(c1ccc(C(C)(C)c3nnnn3C)cc1)C2=O [Example 3Q, 4-amino-2-methoxy-6-{4-[1-methyl-1-(1-methyl-1H-tetrazol-5-yl)ethyl]phenyl}-7,8-dihydropyrido[4,3-d]pyrimidin-5(6H)-one]
14 |  | 115 | COc1nc(N)c2c(n1)CCN(c1ccc(OCC3CC3)cc1)C2=O [Example 9H, 4-amino-6-[4-(cyclopropylmethoxy)phenyl]-2-methoxy-7,8-dihydropyrido[4,3-d]pyrimidin-5(6H)-one]
15 |  | 1400 | COc1nc(N)c2c(n1)CCN(c1ccc3nc[nH]c3c1)C2=O [Example 9J, 4-amino-6-(1H-benzimidazol-6-yl)-2-methoxy-7,8-dihydropyrido[4,3-d]pyrimidin-5(6H)-one]
16 |  | 63.2 | COc1nc(N)c2c(n1)CCN(c1ccc(C3(C)CCCO3)cc1)C2=O (centres unmarked) [Example 9K, 4-amino-2-methoxy-6-[4-(2-methyltetrahydrofuran-2-yl)phenyl]-7,8-dihydropyrido[4,3-d]pyrimidin-5(6H)-one]
17 |  | 77.4 | COc1nc(N)c2c(n1)CCN(c1ccc(CCC(F)(F)F)cc1)C2=O [Example 9L, 4-amino-2-methoxy-6-[4-(3,3,3-trifluoropropyl)phenyl]-7,8-dihydropyrido[4,3-d]pyrimidin-5(6H)-one]
18 |  | 23.9 | COc1nc(N)c2c(n1)CCN(c1ccc(SC(C)(C)C)cc1)C2=O [Example 9N, 4-amino-6-[4-(tert-butylthio)phenyl]-2-methoxy-7,8-dihydropyrido[4,3-d]pyrimidin-5(6H)-one]
19 |  | 648 | COc1nc(N)c2c(n1)CCN(c1ccc([S+]([O-])C(C)(C)C)cc1)C2=O (centres unmarked) [Example 9O, 4-amino-6-[4-(tert-butylsulfinyl)phenyl]-2-methoxy-7,8-dihydropyrido[4,3-d]pyrimidin-5(6H)-one]
20 |  | 784 | COc1nc(N)c2c(n1)CCN(c1ccc(S(=O)(=O)C(C)(C)C)cc1)C2=O [Example 9P, 4-amino-6-[4-(tert-butylsulfonyl)phenyl]-2-methoxy-7,8-dihydropyrido[4,3-d]pyrimidin-5(6H)-one]
21 |  | 58.8 | COc1nc(N)c2c(n1)CCN(c1ccc(C(O)C(C)(C)C)cc1)C2=O (centres unmarked) [Example 10A, 4-amino-6-[4-(1-hydroxy-2,2-dimethylpropyl)phenyl]-2-methoxy-7,8-dihydropyrido[4,3-d]pyrimidin-5(6H)-one]
22 |  | 27.9 | COc1nc(N)c2c(n1)CCN(c1ccc(C(OC)C(C)(C)C)cc1)C2=O (centres unmarked) [Example 10D, 4-amino-2-methoxy-6-[4-(1-methoxy-2,2-dimethylpropyl)phenyl]-7,8-dihydropyrido[4,3-d]pyrimidin-5(6H)-one]
23 |  | 117 | CC(C)(C)c1ccc(N2CCc3ncnc(N)c3C2=O)cc1 [Example 11A, 4-amino-6-(4-tert-butylphenyl)-7,8-dihydropyrido[4,3-d]pyrimidin-5(6H)-one]
